The test system of one data set is Xanthobacter agilis. Description: Induction of phthalyl amidase in cultures of Xanthobacter agilis (Table 1). Format: cell-based. The following applies: for effect on wet weight cell mass: 48 hours growth. The method, then:
Three compounds at different concentrations were added to aerated cultures of the organism growing at 30° C. in Bac MI medium. The compounds tested were phthalate (PAA), phthalyl glycine (PAG), and PMBL. Cells of Xanthobacter agilis were grown with aeration for 24 hours. This vegetative culture was used to inoculate Bac MI medium (50 ml) containing different concentrations of the compounds to be tested. After 48 hours growth under standard conditions, cells were harvested by centrifugation and wet weight of the cells was determined. Crude cell extracts were prepared by lysozyme treatment of the cells as in Example 1. Suspensions were briefly sonicated to break up the viscous suspension. A cell-free supernatant was obtained by centrifugation of the suspension at 14,000 rpm for 15 minutes.
Enzyme activity in cell-free lysates was determined by monitoring conversion of the chromogenic substrate 4-(2'-carboxy-N-benzoyl)amino-2-carboxy-nitrobenzene (II) to 2-nitro-5-amino benzoic acid and phthalic acid, a reaction catalyzed by phthalyl amidase as shown below: [drawing 4]
The assay reaction mixture (1 ml) consisted of 0.3 μmol of the chromogenic substrate (II) and 0.001-0.5 μg of enzyme preparation in 50 mM potassium phosphate buffer, pH 8.0 (buffer A). The enzymatic reaction was conducted at 30° C. for 10 minutes and the appearance of product was monitored at 380 nm (or 430 nm). The amount of substrate hydrolyzed was calculated from a standard curve of the amine product.

For data set [1], the target named is T1, phthalyl amidase (Xanthobacter agilis, UniProt P0C2Y0). Description: Influence of effectors and organic solvents on phthalyl amidase activity. Format: biochemical. As to the method: A typical reaction mixture consisted of 1 ml total volume and contained 0.1 mM III, 0.1 μM phthalyl amidase in 50 mM potassium phosphate buffer (pH 5.5-9.0) at 32° C. for 20 minutes. The reactions were stopped by the addition of 1 ml methanol. After removal of precipitate by centrifugation, an aliquot of the supernatant fraction (typically 30 μl) was monitored for the beta-lactam nucleus and phthalic acid by HPLC using a Zorbax C8 column (0.46×15 cm; MacMod Analytical Inc., Chadds Ford, Pa.). The two reaction products were eluted by a mobile phase constructed as continuous mixed gradients from (a) 1% ACN (acetonitrile)/0.2% TFA (trifluoroacetic acid) and (b) 80% ACN/0.2% TFA as follows: 1) 0% (b), 3min; 2) 0-50% (b), 0.5 min; 3) 50-100% (b), 3 min; 4) 100% (b), 2.5 min; 5) 100-1% (b), 0.1 min; and 6) 0% (b), 5 min.
T1 sequence (P0C2Y0 2-453): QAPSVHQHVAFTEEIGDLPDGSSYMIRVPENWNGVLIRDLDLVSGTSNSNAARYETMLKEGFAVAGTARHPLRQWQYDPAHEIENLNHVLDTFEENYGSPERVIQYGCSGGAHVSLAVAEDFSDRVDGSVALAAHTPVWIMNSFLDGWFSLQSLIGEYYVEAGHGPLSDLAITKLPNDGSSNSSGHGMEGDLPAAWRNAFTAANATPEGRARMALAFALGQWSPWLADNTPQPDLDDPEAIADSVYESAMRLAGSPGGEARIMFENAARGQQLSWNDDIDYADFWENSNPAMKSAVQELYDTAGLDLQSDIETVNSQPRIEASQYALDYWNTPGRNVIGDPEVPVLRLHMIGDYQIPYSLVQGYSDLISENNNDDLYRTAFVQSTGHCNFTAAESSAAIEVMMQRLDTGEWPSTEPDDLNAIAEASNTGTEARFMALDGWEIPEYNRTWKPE
The effect of various agents on the enzymatic activity of phthalyl amidase was determined using standard conditions (see Example 5). All agents were tested at 1 mM final concentration unless otherwise indicated.

Data set [2] in a line: Stability of phthalyl amidase: effect of ionic strength and pH. The data set is classed as physicochemical. The following applies: 200 mM salt added to 20 mM buffer. As to the method:
The stability of phthalyl amidase at pH values ranging from 6-9 was determined as described in Example 5 at 30° C. in both 20 and 200 mM potassium phosphate buffer. […] In 200 mM buffer, the enzyme retained at least 80% of its activity for 100 hours irrespective of the pH of the incubating medium.

Data set [3] deals with T1, phthalyl amidase. Description: Kinetic parameters for phthalyl amidase. The data set is classed as biochemical. The following applies: Table 12; 32° C., pH 8.2. As to the method: The kinetic parameters of the enzyme were determined for several representative substrates. Compounds II, XVII, and XVIII were tested using 0.9 μg/ml of enzyme. Compounds III and XI were tested using 5.14 μg/ml of enzyme. Substrate concentrations were between 0 and 25 mM and reaction time was between 2 and 20 minutes, depending on the substrate used. All reactions were run at 32° C. and at pH 8.2. Km is the Michaelis constant for enzyme kinetics, Vmax is the maximal rate of reaction calculated by the Michaelis-Menten equation, and Kcat is the catalytic constant for an enzyme reaction.

For data set [4], the target named is T1, phthalyl amidase. Description: Substrate specificity of phthalyl amidase (Tables 9-11). The data set is classed as biochemical. The note with it: 30° C., pH 8.0. The method, then:
the activity of phthalyl amidase against 25 compounds was determined. The compounds were divided into beta-lactams (Table 9), phthalyl amides (Table 10), and aromatic ring substituted amides (Table 11). Each reaction mixture (1 ml total volume) contained 2.5 μmol of compound and 0.3 units of enzyme (based on the chromogenic substrate) of the preparative scale purified enzyme, in 50 mM phosphate buffer, pH 8.0. The reactions were conducted at 30° C. Samples of the reaction mixture were taken at various times, and methanol (equal value) was added to stop the reaction. The samples were examined by HPLC to determine the extent of substrate hydrolysis. The amount of compound hydrolyzed was calculated from a standard curve of the test compound. All substrates were stable in buffer at 30° C. and pH 8.0 in the absence of enzyme for 24 hours.

Data set [5] has as its target T1, phthalyl amidase. Description: Chiral and additional substrate selectivity of phthalyl amidase (Table 13). The following applies: 30° C.; for Relative Activity: Table 13. The data set is classed as biochemical. The method, then: Several additional substrates were tested in a total volume of 1 ml. […] Reactions were stopped by the addition of methanol, and phthalic acid formation was monitored by HPLC.

[6] abbreviates: Table 11, aromatic ring substituted amides.

“Also recorded” adds a separate entry of the source. Like-named read-outs stand apart in the source and are kept apart here.

Regarding `O=C(O)c1ccccc1C(=O)O` [PAA, phthalate], the Cell weight is recorded as 0.35 g/50 ml in the data set with Xanthobacter agilis (addition 1 mg/ml), 0.47 g/50 ml with Xanthobacter agilis (addition 2 mg/ml), 0.7 g/50 ml in the data set on Xanthobacter agilis (addition 5 mg/ml) and 0.6 g/50 ml in the data set on Xanthobacter agilis (addition 10 mg/ml). Besides, the Total units/mg protein in the data set with Xanthobacter agilis (addition 1 mg/ml) was determined as 1.4 µmol/min/mg; with Xanthobacter agilis (addition 2 mg/ml), 4.3 µmol/min/mg; in the data set with Xanthobacter agilis (addition 5 mg/ml), 3.7 µmol/min/mg; with Xanthobacter agilis (addition 10 mg/ml), 12.0 µmol/min/mg. In addition, the Units/g/cells was 3.9 Units/g/cells in the data set on Xanthobacter agilis (addition 1 mg/ml), 9.3 Units/g/cells in the data set on Xanthobacter agilis (addition 2 mg/ml), 5.5 Units/g/cells in the data set on Xanthobacter agilis (addition 5 mg/ml) and 19.8 Units/g/cells in the data set on Xanthobacter agilis (addition 10 mg/ml).

For the molecule `[Cl-].[K+]` [KCl, reference compound], the “% of Control Activity” value on phthalyl amidase [1] (1 mM agent) is recorded as 100%. The “protection of enzyme against activity loss” value in data set [2] is “protected against activity loss”.

As for `[Cl-].[Cl-].[Zn+2]` [ZnCl2], at phthalyl amidase [1] (1 mM agent), the “% of Control Activity” value was 100%.

For the molecule `O=C(O)CI` [Iodoacetate], the “effect on enzyme activity” value at phthalyl amidase [1] is reported as “exert inhibitory activity; also recorded: significantly reduced phthalyl amidase activity; also recorded: significantly inhibited the enzyme”.

For the molecule `[Cl-].[Na+]` [NaCl, reference compound], the “% of Control Activity” value at phthalyl amidase [1] stood at 104%. Besides, the “protection of enzyme against activity loss” value in data set [2] is listed as “protected against activity loss”.

For the molecule `CCCCCCC(C(=O)O)n1cnc(NC(=O)c2c(F)cccc2C(=O)O)c1` (centres unmarked) [XVIII], on phthalyl amidase [3], the Km was determined as 170 µM and the Vmax is reported as 1.94 μmol/sec/μmol. Further, on phthalyl amidase [4] (setting [6]), the “Relative Activity” value came to 159.00.

Consider `[Cl][Cu][Cl]` [CuCl2], for which the “% of Control Activity” value at phthalyl amidase [1] (1 mM agent) is 36%. For the same molecule, the “effect on enzyme activity” value is given as “exert inhibitory activity; also recorded: significantly inhibited the enzyme” on phthalyl amidase [1] (1 mM, iodoacetic acid 10 mM, listed as Cu^++) and “significantly reduced phthalyl amidase activity” on phthalyl amidase [1] (1 mM, iodoacetic acid 10 mM, listed as copper ions).

For `[Cl][Mn][Cl]` [MnCl2], the “% of Control Activity” value at phthalyl amidase [1] (1 mM agent) was determined as 84%.

Take `O=C(O)CNC(=O)c1ccccc1C(=O)O` [PAG, phthalyl glycine]: in the data set on Xanthobacter agilis, the “effect on wet weight cell mass” value is given as “increased the wet weight cell mass”. In the data set on Xanthobacter agilis (addition 1 mg/ml), this molecule had a Cell weight of 0.33 g/50 ml, a Total units/mg protein of 0.35 µmol/min/mg and a Units/g/cells of 1.04 Units/g/cells. In addition, in the data set on Xanthobacter agilis (addition 5 mg/ml), the Cell weight was determined as 0.5 g/50 ml, the Total units/mg protein came to 4.4 µmol/min/mg and the Units/g/cells is given as 9.4 Units/g/cells.

For `[Cl-].[Cl-].[Co+2]` [CoCl2], the “% of Control Activity” value at phthalyl amidase [1] (1 mM agent) is 101%.

With `[Cl][Ni][Cl]` [NiCl2], at phthalyl amidase [1] (1 mM agent), the “% of Control Activity” value worked out at 94%.

With `O=C(O)CNC(=O)c1ccccc1C(=O)O` [XI], on phthalyl amidase [3], the Km worked out at 140 µM and the Vmax is on record as 0.27 μmol/sec/μmol. On phthalyl amidase [4] (Table 10, phthalyl amides), the “Relative Activity” value turned out to be 31.8.

Take `O=C(O)CN1C(=O)C(NC(=O)c2ccccc2C(=O)O)C1CCc1ccco1` (stereo not drawn) [PMBL, phthalyl monocyclic beta-lactam]: in the data set on Xanthobacter agilis, the “effect on wet weight cell mass” value is on record as “had no effect”. In the data set with Xanthobacter agilis (addition 1 mg/ml), this molecule came in with a Cell weight of 0.35 g/50 ml, a Total units/mg protein of 0.28 µmol/min/mg and a Units/g/cells of 0.79 Units/g/cells. Further, in the data set on Xanthobacter agilis (addition 5 mg/ml), the Cell weight was 0.24 g/50 ml, the Total units/mg protein was determined as 2.0 µmol/min/mg and the Units/g/cells is given as 8.1 Units/g/cells.

In the case of `NC(=O)C1=CN([C@@H]2O[C@H](COP(=O)(O)OP(=O)(O)OC[C@H]3O[C@@H](n4cnc5c(N)ncnc54)[C@H](OP(=O)(O)O)[C@@H]3O)[C@@H](O)[C@H]2O)C=CC1` [NADPH, reduced form of NADP], at phthalyl amidase [1] (1 mM, iodoacetic acid 10 mM), the “effect on enzyme activity” value was “No organic co-factors, such as ATP, NADPH or others, stimulated enzyme activity”.

Consider `[Cl-].[Cl-].[Mg+2]` [MgCl2], for which the “% of Control Activity” value at phthalyl amidase [1] (1 mM agent) is given as 102%.

`O=C(O)c1ccccc1C(=O)Nc1ccc([N+](=O)[O-])c(C(=O)O)c1` [II, 4-(2'-carboxy-N-benzoyl)amino-2-carboxy-nitrobenzene]: at phthalyl amidase [3], the Km was 50 µM and the Vmax came out at 5.95 μmol/sec/μmol. For the same molecule, the “Relative Activity” value at phthalyl amidase [4] (Table 10, phthalyl amides) is listed as 295.7.

Regarding `O=C(Nc1ccccc1)c1ccccc1S(=O)(=O)O` [XXXII], on phthalyl amidase [5], the “substrate preference” value is “poor substrates for the enzyme”. In addition, the “Relative Activity” value on phthalyl amidase [5] (run for a longer time period) came out at 0.0.

Consider `O=C(O)c1ccccc1C(=O)Nc1ccccc1` [Compound XXXI], for which the “substrate preference” value at phthalyl amidase [5] was “twice that of compound III”. Moreover, on phthalyl amidase [5] (2 minutes), the “Relative Activity” value is on record as 200.

As to `OCC(O)CO` [Glycerol], at phthalyl amidase [1] (10% solvent), the “effect of solvent on enzyme activity” value is listed as “least amount of inhibition of the enzyme”.

For `[Cl][Fe]([Cl])[Cl]` [FeCl3], the “% of Control Activity” value on phthalyl amidase [1] (1 mM agent) amounted to 96%.

On to `CCCCCCC(C(=O)O)n1cnc(NC(=O)c2ccccc2C(=O)O)c1` (centres unmarked) [XVII], for which, on phthalyl amidase [3], the Km is 90 µM and the Vmax is on record as 1.41 μmol/sec/μmol. Further, at phthalyl amidase [4] (setting [6]), the “Relative Activity” value is on record as 100.0.

As for `O=C(O)c1cc[c]([Hg][OH])cc1` [p-HMB, parahydroxy mercuric benzoate], the “% of Control Activity” value at phthalyl amidase [1] (1 mM agent) turned out to be 65%. At phthalyl amidase [1] (1 mM, iodoacetic acid 10 mM), the “effect on enzyme activity” value is “exert inhibitory activity; also recorded: significantly reduced phthalyl amidase activity; also recorded: significantly inhibited the enzyme”.

As for `c1cnc2c(c1)ccc1cccnc12` [Phenanthroiine, phenanthroline], the “effect on enzyme activity” value at phthalyl amidase [1] (1 mM, iodoacetic acid 10 mM) is “little or no effect on enzyme activity”.

Consider `O=C(O)c1ccccc1C(=O)N[C@H](C(=O)O)c1ccccc1` [Compound XXX, N-phthalyl-phenylglycine], for which the “substrate preference” value is reported as “poor substrates for the enzyme” at phthalyl amidase [5] and “extremely poor substrate” at phthalyl amidase [5] (listed as L isomer). The “Relative Activity” value on phthalyl amidase [5] (run for a longer time period) is on record as 1.3.

As for `[Ca+2].[Cl-].[Cl-]` [CaCl2], on phthalyl amidase [1] (1 mM agent), the “% of Control Activity” value is 89%.

As for `O=C(O)CN(CCN(CC(=O)O)CC(=O)O)CC(=O)O` [EDTA], the “effect on enzyme activity” value at phthalyl amidase [1] is recorded as “little or no effect on enzyme activity”.

Consider `Nc1ncnc2c1ncn2[C@@H]1O[C@H](COP(=O)(O)OP(=O)(O)OP(=O)(O)O)[C@@H](O)[C@H]1O` [ATP, adenosine 5triphosphate], for which the “effect on enzyme activity” value on phthalyl amidase [1] (1 mM, iodoacetic acid 10 mM) was “No organic co-factors, such as ATP, NADPH or others, stimulated enzyme activity”.

Take `[Cl][Fe][Cl]` [FeCl2]: the “% of Control Activity” value at phthalyl amidase [1] (1 mM agent) is on record as 102%.

In general, Km refers to the substrate concentration at which the rate is half of its maximum.

The values are drawn from patent US5607850A, “Enzyme from microbial source: phthalyl amidase” (Eli Lilly and Company, priority 1995, dated 1997).
